How the values were obtained:
rat lymphocytes = assay: Proliferation of rat lymphocytes stimulated by PMA and calcium ionophore A23187 (tritium thymidine uptake); format: cell-based; conditions: Lymphocyte, PMA 10 ng/ml and A23187 100 ng/ml
Method: An RPMI1640 medium (Sigma) was used as a medium, to which kanamycin sulfate (60 μg/ml) and penicillin G potassium (100 units/ml) were added, and then 10% of fetal calf serum (FCS, Gibco) inactivated at 56° C. for 30 min was added and used for the test. The compound of the present invention or a pharmaceutically acceptable salt thereof was dissolved in dimethyl sulfoxide and diluted with the 10% FCS-containing RPMI1640 medium to a desired concentration and used for the test.
The spleens were aseptically removed from 6-week-old male F344 rats or LEW rats (Charles River Japan, Inc.) and minced with tweezers in RPMI1640 medium and then prepared into a single cell suspension of splenic cell. After hematolysis by a hypotonicity treatment using a 9:1 mixed solution of 0.83% aqueous ammonium chloride solution and Tris-HCl buffer (pH 7.65), the suspension was passed through a nylon wool column to give nylon non-adhesive T cell concentration fraction for use. The cell suspension prepared using 10% FCS-containing RPMI1640 medium was added to a flat 96 well microtest plate at 5×10^5 cells/well. The compound of the present invention or a pharmaceutically acceptable salt thereof at a concentration of 0.0001-100 μM, 10 ng/ml of PMA and 100 ng/ml of A23187 were added and the mixture was cultured at 37° C., 5% carbon dioxide and 95% air for 44 hr. After the completion of the culture, tritium thymidine (18.5 kBq/well, specific activity: 185 GBq/mmol, Amersham Pharmacia Biotech) was added and the mixture was cultured at 37° C., 5% carbon dioxide, 95% air for further 4 hr. Then using a cell harvester, the cells were recovered on a glass fiber filter, and using a scintillation counter (MicroBeta 1460) for plate, the radioactivity taken into the cells was measured, and the proliferation of rat lymphocyte induced by stimulation with PMA and A23187 was measured. To be specific, the inhibition rate was calculated by the following formula based on average tritium thymidine uptake (cpm) by lymphocyte in the wells to which various concentrations of the compound of the present invention were added. [formula]
Based on the dose-response curve obtained by plotting average value of tritium thymidine uptake (cpm) or inhibition rate in the longitudinal axis and concentration in the horizontal axis, the concentration (IC50) of the compound that inhibits the level to 50% of the value of the control group was determined by nonlinear regression.

[1] = tested on: type II collagen induced arthritis; assay: Type II collagen induced arthritis in DBA/1J mouse; format: in vivo; conditions: repeated oral administration

Compound | IC50 (rat lymphocytes) [nM] | improvement of severity of developed arthritis, swelling of the limbs or destruction of joint ([1]; 10 mg/kg body weight) | death ([1]; 30 mg/kg body weight)
Cc1[nH]c2ccc(F)cc2c1C(=O)Nc1ccc(Oc2ccccc2)c(C#N)c1 [Example 6, N-(3-cyano-4-phenoxyphenyl)-5-fluoro-2-methyl-1H-indole-3-carboxamide] | 390 | – | –
CC(C)c1ccc2c(O)c(C(=O)Nc3ccc(OCC(C)(C)C)c(C#N)c3)sc2n1 [Example 28, N-(3-cyano-4-neopentyloxyphenyl)-3-hydroxy-6-isopropylthieno[2,3-b]pyridine-2-carboxamide] | 2000 | – | –
N#Cc1cc(NC(=O)c2cc3ccccc3o2)ccc1N1CCC(CCO)CC1 [Example 20, N-{3-cyano-4-[4-(2-hydroxyethyl)piperidin-1-yl]phenyl}benzo[b]furan-2-carboxamide] | 230 | – | –
Cc1c(C(=O)Nc2ccc(C(F)(F)F)cc2)cnn1-c1ccc(F)cc1 [1-(4-fluorophenyl)-N-(4-trifluoromethylphenyl)-5-methylpyrazole-4-carboxamide] | – | did not improve | confirmed death
N#Cc1cc(NC(=O)c2cc3ccccc3s2)ccc1N1CCN(CCO)CC1 [Example 11, N-[3-cyano-4-(4-(2-hydroxyethyl)piperazin-1-yl)phenyl]benzo[b]thiophene-2-carboxamide] | 1500 | – | –

Source: US7112594B2, “Fused bicyclic amide compounds and medicinal use thereof” (Mitsubishi Pharma Corporation, priority 2000, dated 2006)
